Patent US20100239596A1, “GRP78 AND TUMOR ANGIOGENESIS” (UNIVERSITY OF SOUTHERN CALIFORNIA, priority 2007, published 2010)

Legend:
[1] = tested on: TuBEC (tumor-associated brain endothelial cells); format: cell-based; settings: seven days; for TuBEC cell death, agent alone: TMZ 300 μM, CPT-11 100 μM, Eto 50 μM, EGCG 20 μM
Procedure: Cell death ELISA. EC were treated with etoposide (Calbiochem; La Jolla, Calif.), temozolomide (TMZ) (Schering-Plough; Kenilworth, N.J.), CPT-11 (Pharmacia; New York, N.Y.), the caspase inhibitor Q-VDOPH (Calbiochem), or EGCG (Sigma-Aldrich, St. Louis, Mo.), then assayed using the Cell Death Detection ELISA Plus kit (Roche Diagnostics; Indianapolis, Ind.) according to manufacturer's protocol. Percent death was calculated based on 100% positive cell death control.
Lentiviral construct. The sequences of siRNA, the isolation of human Grp78 cDNA and their subcloning into lentiviral constructs are previously described (Dong et al, Cancer Res., 65:5785-91, 2005). The sequences of the siRNA against human GRP78 are: siGRP78A: 5′-[…]-3′ (SEQ ID NO:1) and siGRP78B: 5′-[…]-3′ (SEQ ID NO:2). The sequences of the control siRNA are: sicontrol A: 5′-[…]-3′ (SEQ ID NO:3); sicontrol B: 5′-[…]-3′ (SEQ ID NO:4). For construction of lentivirus expressing GRP78, full length human GRP78 was prepared by reverse transcription of total HEK293T RNA followed by a 2-step PCR amplification and subcloning into the BamHI/XhoI sites of pcDNA3 (Invitrogen; Carlsbad, Calif.) to yield pcDNA3-hGRP78. Non-replicating lentiviral vectors co-expressing bicistronic human GRP78 and EGFP linked via the EMCV IRES were produced using the pLenti6/V5-D-TOPO and VIRAPOWER™ Lentivirus Expression system (Invitrogen, Carlsbad, Calif.). Initially, EGFP (Clonetech; Mountain View, Calif.) was inserted into the CMV driven expression cassette by TOPO cloning. […] The human GRP78 gene digested from pcDNA3-hGRP78 using XbaI and XhoI was ligated into pLenti6/EGFP between the CMV promoter and the EGFP gene. Next, an insert encoding the EMCV IRES, was generated by PCR from pIRES-EGFP (Clonetech) and subcloned into the XhoI/AgeI sites of pLenti6/huGRP78 EGFP. The IRES sequence was inserted between the human GRP78 gene and the EGFP allowing hGRP78 expression to be monitored by EGFP fluorescence. The manufacturer's manual was followed for TOPO cloning and production of viral particles. For infection, 10^4 cells were plated in 6-well dishes and infected with lentivirus at titers of 5×10^6 units/ml (TU/ml). Infected cells, monitored for GFP, were used when cultures were 100% GFP positive.
To test whether GRP78 confers drug resistance to TuBEC, TuBEC cultures were infected with lentivirus expressing siGRP78A and siCtr1A. Five days post infection, cultures were left untreated (media), or treated with CPT-11 [100 μM], etoposide (Eto) [50 μM] or temozolomide (MZ) [300 μM]. After treatment for seven days, the cells were analyzed for cytotoxicity.
To target GRP78 through a small molecule approach, TuBEC were incubated with EGCG alone or in combination with TMZ, CPT-11, and Eto. Cytotoxicity was measured after seven days (FIG. 3D).

[2] = tested on: BEC (normal human brain endothelial cells); experiment: MTT cell viability assay, BEC; format: cell-based; settings: 50 μM etoposide, 72 hours, vs DMSO vehicle
Procedure: (§1) Cell Culture. Endothelial cells (EC) were isolated from normal human brain tissue or human glioma tissue as previously described (Charalambous et al, J. Neurosurg., 102:699-705, 2005; Charalambous et al, Exp Cell Res., 313:1192-202, 2007). All experiments were performed on subconfluent (60-80%) cultures, in passages 4 to 6 only.
(§2) MTT cell viability assay. Cells were plated in triplicate (3×10^3 cells/well; […]) into 96-well plates coated with 1% gelatin. The 3-(4,5-dimethylthiazol-2-yl)-2,5-diphenyltetrazolium bromide (MTT) assay was performed according to the manufacturer's instructions (Sigma-Aldrich, St. Louis, Mo.). Percent cell viability was calculated relative to vehicle-treated controls.
(§3) To compare the sensitivities of TuBEC and BEC to chemotherapeutic agents, cells were treated with the topoisomerase II inhibitor, etoposide [1-50 μM] or DMSO (vehicle) [0.1%] for 72 hours, and cytoxicity was assessed using the MTT assay, which was performed according to manufacturer's protocol (Sigma Aldrich; St. Louis, Mo.).

[3] = tested on: TuBEC (tumor-associated brain endothelial cells); experiment: MTT cell viability assay, TuBEC; format: cell-based, human; settings: 50 μM etoposide, 72 hours, vs DMSO vehicle
Procedure: as §1, §2, §3

`CCc1c2c(nc3ccc(OC(=O)N4CCC(N5CCCCC5)CC4)cc13)-c1cc3c(c(=O)n1C2)COC(=O)[C@]3(O)CC` [CPT-11] was tested, and the “TuBEC cell death, agent alone” value [1] was “did not cause TuBEC cell death”.

With `CC(C)[C@H](NC(=O)c1ccc2ccccc2n1)C(=O)N[C@@H](CC(=O)O)C(=O)COc1c(F)cccc1F` [Q-VDOPH] the “effect of caspase inhibition on cell death induced by CPT-11, Eto or TMZ with reduced GRP78” value ([1]; Q-VDOPH [10 mM], TuBEC infected with siGRP78B) was “blocked cell death”.

For `COc1cc([C@@H]2c3cc4c(cc3[C@@H](O[C@@H]3O[C@@H]5CO[C@@H](C)O[C@H]5[C@H](O)[C@H]3O)[C@H]3COC(=O)[C@H]23)OCO4)cc(OC)c1O` [etoposide], the “BEC died (cytotoxicity, MTT assay)” value [2] was “over 60%”, the “cell death of TuBEC (cytotoxicity, MTT assay)” value [3] was “no significant cell death” and the “TuBEC cell death, agent alone” value [1] was “did not cause TuBEC cell death”.

With (−)-epigallocatechin gallate [EGCG] the “cell death, EGCG in combination with CPT-11” value ([1]; EGCG 20 μM + CPT-11 100 μM, p=0.005) was 46%, the “cell death, EGCG in combination with Eto” value ([1]; EGCG 20 μM + Eto 50 μM, p=0.001) was 49% and the “cell death, EGCG in combination with TMZ” value ([1]; EGCG 20 μM + TMZ 300 μM, p=0.003) was 35%. The “TuBEC cell death, agent alone” value [1] was “did not cause TuBEC cell death”.
